Assay results: ChEMBL document CHEMBL1201862, “PubChem BioAssay data set” (2004)
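Step 1: Grow cells in 96-well plates. Step 2: Expose to compound for 48 hours at 5 concentrations. Step 3: Interpolate endpoints linearly; if unreached, use highest concentration. GI50 = concentration required for 50% inhibition of growth.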 Active and inactive are the calls of the source. Cut-off read from the data, not from the text of the source: active = GI50 up to about 1.1 µM and inactive = higher.

Columns and labels:
Test in all cases: inhibition of tumour cell growth, NCI panel, 48 h
K562 = test system: K562
EKVX = test system: EKVX
SK-MEL-28 = test system: SK-MEL-28
MOLT-4 = test system: MOLT-4
ACHN = test system: ACHN
MDA-N = test system: MDA-N
TK-10 = test system: TK-10
PC-3 = test system: PC-3
SNB-75 = test system: SNB-75
NCI/ADR-RES = test system: NCI/ADR-RES
HOP-62 = test system: HOP-62
SF-268 = test system: SF-268
Malme-3M = test system: Malme-3M
HL-60 = test system: HL-60
COLO 205 = test system: COLO 205
SK-MEL-2 = test system: SK-MEL-2
UACC-62 = test system: UACC-62
MCF7 = test system: MCF7
NCI-H226 = test system: NCI-H226
NCI-H522 = test system: NCI-H522

Measured: GI50

O=C1CC(C(OCc2ccccc2)C(OCc2ccccc2)C(OCc2ccccc2)C(COCc2ccccc2)OCc2ccccc2)CC(=O)N1 (centres undefined)
inactive: K562 > 100 µM | EKVX > 100 µM | SK-MEL-28 > 100 µM | MOLT-4 59 µM | ACHN > 100 µM | MDA-N > 100 µM | TK-10 > 100 µM | PC-3 > 100 µM | SNB-75 > 100 µM | NCI/ADR-RES > 100 µM | HOP-62 > 100 µM | SF-268 > 100 µM | Malme-3M > 100 µM | HL-60 > 100 µM

COc1ccc(/C=C2/S/C(=N\c3ccccc3)N(NC(=O)Cc3ccccc3)C2=O)c(OC)c1
inactive: K562 89.9 µM | EKVX > 100 µM | SK-MEL-28 > 100 µM | MOLT-4 68.7 µM | COLO 205 > 100 µM | ACHN > 100 µM | SK-MEL-2 > 100 µM | MDA-N > 100 µM | TK-10 > 100 µM | UACC-62 > 100 µM | SNB-75 > 100 µM | NCI/ADR-RES > 100 µM | HOP-62 > 100 µM | MCF7 > 100 µM | SF-268 > 100 µM | NCI-H226 > 100 µM

CC(C)(CN1CCCCC1)C(=O)/C=C/c1ccc(Cl)c(Cl)c1
inactive: K562 1.59 µM | EKVX 1.76 µM | SK-MEL-28 1.86 µM | MOLT-4 1.63 µM | COLO 205 1.5 µM | ACHN 1.55 µM | SK-MEL-2 1.73 µM | TK-10 1.48 µM | UACC-62 1.76 µM | SNB-75 1.48 µM | HOP-62 1.95 µM | NCI-H522 1.21 µM | SF-268 1.8 µM | Malme-3M 1.83 µM | HL-60 1.53 µM | NCI-H226 1.71 µM

O=C(Cn1cc(I)c(C(=O)NCC(O)CO)n1)NCC(O)CO (centres undefined)
inactive: K562 > 100 µM | EKVX > 100 µM | SK-MEL-28 > 100 µM | MOLT-4 > 100 µM | COLO 205 > 100 µM | ACHN > 100 µM | SK-MEL-2 > 100 µM | TK-10 > 100 µM | UACC-62 > 100 µM | SNB-75 > 100 µM | HOP-62 > 100 µM | NCI-H522 > 100 µM | SF-268 > 100 µM | Malme-3M > 100 µM | HL-60 > 100 µM | NCI-H226 > 100 µM

CC(C)(C)c1cc(C(=O)O)c(C(c2ccccc2)c2ccccc2C(=O)O)c(C(=O)O)c1 (centres undefined)
inactive: K562 > 100 µM | EKVX > 100 µM | SK-MEL-28 > 100 µM | MOLT-4 > 100 µM | COLO 205 33.8 µM | ACHN 20.7 µM | SK-MEL-2 > 100 µM | TK-10 > 100 µM | UACC-62 > 100 µM | SNB-75 21.7 µM | HOP-62 > 100 µM | NCI-H522 2.52 µM | SF-268 > 100 µM | Malme-3M > 100 µM | HL-60 > 100 µM | NCI-H226 35 µM

CCc1cccc(C)c1N1C(=O)C(=O)C(c2nc3ccccc3o2)C(=O)C1=O
inactive: K562 > 100 µM | EKVX > 100 µM | SK-MEL-28 > 100 µM | MOLT-4 > 100 µM | COLO 205 > 100 µM | ACHN > 100 µM | SK-MEL-2 > 100 µM | TK-10 > 100 µM | UACC-62 > 100 µM | SNB-75 45.7 µM | HOP-62 > 100 µM | NCI-H522 > 100 µM | SF-268 > 100 µM | Malme-3M > 100 µM | HL-60 > 100 µM | NCI-H226 > 100 µM

CCCCCCCCCCCCCC(=O)CC(=O)c1c(O)cccc1O
inactive: K562 21 µM | EKVX 30.6 µM | SK-MEL-28 > 100 µM | MOLT-4 21.5 µM | COLO 205 22.5 µM | ACHN 28.2 µM | SK-MEL-2 19.2 µM | TK-10 51.6 µM | UACC-62 47.3 µM | SNB-75 39.5 µM | HOP-62 34.4 µM | NCI-H522 22.7 µM | SF-268 61.8 µM | Malme-3M 28.8 µM | HL-60 20.8 µM | NCI-H226 28.4 µM

O=C(O)C1Cc2ccccc2OC1=O (centres undefined)
inactive: K562 > 100 µM | EKVX > 100 µM | SK-MEL-28 > 100 µM | MOLT-4 > 100 µM | COLO 205 > 100 µM | ACHN > 100 µM | SK-MEL-2 > 100 µM | TK-10 > 100 µM | PC-3 > 100 µM | UACC-62 > 100 µM | NCI/ADR-RES > 100 µM | HOP-62 > 100 µM | NCI-H522 > 100 µM | MCF7 > 100 µM | SF-268 > 100 µM | Malme-3M > 100 µM | NCI-H226 > 100 µM

CC(C)=CCN1CC(C)C(=O)Nc2ccccc21 (centres undefined)
inactive: K562 > 100 µM | EKVX > 100 µM | SK-MEL-28 > 100 µM | MOLT-4 > 100 µM | COLO 205 > 100 µM | ACHN > 100 µM | SK-MEL-2 > 100 µM | MDA-N > 100 µM | TK-10 > 100 µM | PC-3 > 100 µM | HOP-62 > 100 µM | NCI-H522 66.8 µM | MCF7 61.4 µM | SF-268 > 100 µM | Malme-3M > 100 µM | HL-60 > 100 µM | NCI-H226 65.2 µM
